Reference: patent publication US7217701B2, “Intracellular calcium concentration increase inhibitors” (Katsuhiko Mikoshiba, priority 2001, dated 2007)
Where two headings read alike, the source gives them in different places.

Columns and labels:
[1] = target: T1, calcium release by IP3 (IP3 receptor) (Mus musculus, UniProt P11881); test: Inhibitory activity against calcium release by IP3 (cerebellum microsomes, fura2); type: biochemical
T1 construct: from tissue; host or cells: mouse cerebellum microsomes
Description: Furthermore, the supernatant was centrifuged (105,000 g, for 60 minutes). […] Then IP3 was added thereto, and the released calcium was measured by the measurement of the fluorescence of 500 nm obtained at 2-wavelength excitation of 340 nm and 380 nm, and the fluorescence ratio F=340/380.
(§1) 2-aminoethyl diphenylborinate was used as a comparative compound.

[2] = tested on: capacitative calcium entry in cell strain deficient of IP3 receptors produced from DT40; test: Inhibitory activity against capacitative calcium entry (fura-2 fluorescence ratio); type: cell-based, chickens; conditions: Gallus gallus
Description: Fura-2 acetoxymethylester was introduced to the cell strain deficient of IP3 receptors produced from the cultivated cell strain DT40 from chickens. The intracellular calcium concentration was measured by the measurement of the fluorescence of 510 nm obtained at 2-wavelength excitation of 340 nm and 380 nm, and its fluorescence ratio F=340/380.
Intracellular calcium store was depleted by activating tapsigalguine (inhibitor of the endoplasmic reticulum calcium pump) without the presence of the calcium ion in the extracellular fluid.
as §1

[3] = mouse cerebellum microsomes, calcium released with 30 nM of IP3 defined as 100%, read-out: IC50
[4] = increase rate of intracellular calcium concentration on adding 2 mM calcium chloride after store depletion with tapsigalguine, IP3 receptor-deficient DT40 cells, read-out: IC50

T1 sequence (P11881 whole entry): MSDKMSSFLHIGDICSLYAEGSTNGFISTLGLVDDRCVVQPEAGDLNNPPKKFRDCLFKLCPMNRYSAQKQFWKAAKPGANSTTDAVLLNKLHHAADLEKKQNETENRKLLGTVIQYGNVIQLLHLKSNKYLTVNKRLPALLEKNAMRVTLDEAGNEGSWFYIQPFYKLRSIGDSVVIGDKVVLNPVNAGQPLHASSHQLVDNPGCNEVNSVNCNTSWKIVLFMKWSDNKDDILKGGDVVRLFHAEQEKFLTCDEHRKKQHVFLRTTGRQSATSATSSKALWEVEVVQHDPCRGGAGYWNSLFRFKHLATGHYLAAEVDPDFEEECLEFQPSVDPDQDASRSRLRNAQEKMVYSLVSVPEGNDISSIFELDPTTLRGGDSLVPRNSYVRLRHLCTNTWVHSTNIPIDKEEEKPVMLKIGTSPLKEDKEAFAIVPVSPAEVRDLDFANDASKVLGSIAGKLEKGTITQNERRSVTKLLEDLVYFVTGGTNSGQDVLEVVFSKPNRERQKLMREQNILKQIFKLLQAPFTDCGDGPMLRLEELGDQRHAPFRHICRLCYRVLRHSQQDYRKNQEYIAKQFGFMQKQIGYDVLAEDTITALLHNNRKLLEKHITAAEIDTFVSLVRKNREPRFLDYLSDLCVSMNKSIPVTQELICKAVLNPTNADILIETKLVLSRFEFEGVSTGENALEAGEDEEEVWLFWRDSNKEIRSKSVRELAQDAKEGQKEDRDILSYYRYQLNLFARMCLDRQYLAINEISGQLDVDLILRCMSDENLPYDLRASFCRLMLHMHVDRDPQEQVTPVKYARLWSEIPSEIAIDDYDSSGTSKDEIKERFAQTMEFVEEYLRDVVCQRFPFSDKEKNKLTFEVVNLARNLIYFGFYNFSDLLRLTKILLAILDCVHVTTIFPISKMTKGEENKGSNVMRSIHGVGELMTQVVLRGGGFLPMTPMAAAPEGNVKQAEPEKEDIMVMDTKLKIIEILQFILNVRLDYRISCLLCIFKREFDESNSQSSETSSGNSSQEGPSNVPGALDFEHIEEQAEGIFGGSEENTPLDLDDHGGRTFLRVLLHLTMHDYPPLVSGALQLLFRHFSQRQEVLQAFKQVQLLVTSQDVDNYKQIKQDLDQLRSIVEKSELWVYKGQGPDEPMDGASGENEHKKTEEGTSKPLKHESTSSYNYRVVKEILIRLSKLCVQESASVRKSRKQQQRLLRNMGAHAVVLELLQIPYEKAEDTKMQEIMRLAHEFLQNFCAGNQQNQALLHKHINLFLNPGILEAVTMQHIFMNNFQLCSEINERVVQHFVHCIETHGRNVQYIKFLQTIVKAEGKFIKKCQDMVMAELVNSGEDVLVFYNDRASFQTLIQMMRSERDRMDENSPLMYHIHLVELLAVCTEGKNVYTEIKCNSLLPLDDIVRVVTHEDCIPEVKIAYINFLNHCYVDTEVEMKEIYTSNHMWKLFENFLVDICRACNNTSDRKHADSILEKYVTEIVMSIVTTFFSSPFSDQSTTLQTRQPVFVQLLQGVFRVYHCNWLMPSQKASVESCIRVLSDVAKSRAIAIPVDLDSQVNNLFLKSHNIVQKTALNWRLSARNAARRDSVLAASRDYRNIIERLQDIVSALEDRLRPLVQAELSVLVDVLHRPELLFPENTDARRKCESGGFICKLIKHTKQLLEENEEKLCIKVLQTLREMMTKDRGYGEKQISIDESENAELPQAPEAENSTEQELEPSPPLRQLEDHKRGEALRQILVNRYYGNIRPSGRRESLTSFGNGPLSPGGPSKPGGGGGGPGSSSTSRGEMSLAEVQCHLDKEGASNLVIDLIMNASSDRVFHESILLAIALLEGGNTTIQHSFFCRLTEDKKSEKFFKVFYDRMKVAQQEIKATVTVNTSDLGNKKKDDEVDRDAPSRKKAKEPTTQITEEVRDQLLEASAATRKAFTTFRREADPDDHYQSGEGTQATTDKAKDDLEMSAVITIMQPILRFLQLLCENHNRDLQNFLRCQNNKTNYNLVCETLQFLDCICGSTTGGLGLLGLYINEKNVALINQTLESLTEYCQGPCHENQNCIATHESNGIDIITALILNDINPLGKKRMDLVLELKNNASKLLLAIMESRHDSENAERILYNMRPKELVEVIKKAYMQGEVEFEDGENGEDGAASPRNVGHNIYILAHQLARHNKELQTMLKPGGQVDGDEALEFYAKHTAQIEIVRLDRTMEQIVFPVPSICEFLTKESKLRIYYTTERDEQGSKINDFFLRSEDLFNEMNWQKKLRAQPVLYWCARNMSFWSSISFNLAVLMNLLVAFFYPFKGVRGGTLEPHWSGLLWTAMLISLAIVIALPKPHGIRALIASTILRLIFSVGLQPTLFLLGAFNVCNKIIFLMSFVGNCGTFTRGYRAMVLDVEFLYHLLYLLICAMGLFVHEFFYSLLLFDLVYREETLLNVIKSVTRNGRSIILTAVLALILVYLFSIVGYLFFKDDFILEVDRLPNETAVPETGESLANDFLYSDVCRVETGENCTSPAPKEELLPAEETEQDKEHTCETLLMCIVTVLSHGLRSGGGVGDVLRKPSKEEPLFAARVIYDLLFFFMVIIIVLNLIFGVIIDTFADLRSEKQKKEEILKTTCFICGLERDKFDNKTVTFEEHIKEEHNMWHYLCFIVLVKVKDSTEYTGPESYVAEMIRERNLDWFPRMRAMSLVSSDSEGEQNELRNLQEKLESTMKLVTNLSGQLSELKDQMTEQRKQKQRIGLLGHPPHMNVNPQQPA

Compound | IC50 [1, 3] [µM] | IC50 [2, 4] [µM] | further results
OB(c1ccc(Cl)cc1)c1ccc(COCc2ccccc2)cc1 [(3), (4-chlorophenyl)(4-benzyloxymethylphenyl)borate] | 3 | – | –
NCCOB(C1CCCC1)C1CCCC1 [(25), 2-aminoethyl dicyclopentylborate] | – | 0.66 | –
Cc1ccc(B(OCCN)c2ccc(C)c(Cl)c2)cc1Cl [(30), 2-aminoethyl bis(3-chloro-4-methylphenyl)borate] | 2.6 | – | –
CCOC(=O)N1CCC(NCC(OB(c2ccc(C)c(Cl)c2)c2ccc(C)c(Cl)c2)c2ccccc2)CC1 (stereo not shown) [(47), 1-phenyl-2-(1-(ethoxycarbonyl)-piperidine-4-ylamino)ethyl bis(3-chloro-4-methylphenyl)borate] | 3.8 | – | –
Cc1ccc(B(OC(CN(C)C)CN(C)C)c2ccc(C)c(Cl)c2)cc1Cl [(60), 1-(dimethylaminomethyl)-2-dimethylaminoethyl bis(3-chloro-4-methylphenyl)borate] | – | 0.35 | –
Cc1ccc(B(OC(c2ccc(C(F)(F)F)cc2)c2ccccn2)c2ccc(C)c(Cl)c2)cc1Cl (stereo not shown) [(62), 1-(4-trifluoromethylphenyl)-1-(2-pyridyl)methyl bis(3-chloro-4-methylphenyl)borate] | – | 0.13 | –
CC(C)(C)c1ccc(B(OCCN)c2ccc(Cl)cc2)cc1 [(84), 2-aminoethyl (4-chlorophenyl)(4-(1,1′-dimethylethyl)phenyl)borate] | 4.5 | – | –
NCCOB(c1ccccc1)c1ccccc1 [Comparative Compound, 2-aminoethyl diphenylborinate, reference compound] | – | – | IC50 [1]: 20 µM; IC50 ([2]; DT40): 5 µM
Cc1ccc(B(OC(C)c2ccccn2)c2ccc(C)c(Cl)c2)cc1Cl (stereo not shown) [Compound (53), 1-(2-pyridyl)ethyl bis(3-chloro-4-methylphenyl)borate] | 3.6 | 0.63 | –
NCCOB(c1ccccc1)c1ccc(COCc2ccc(B(OCCN)c3ccccc3)cc2)cc1 [Compound (90), bis[4-[(2-aminoethoxy)phenylboryl]benzyl]ether] | 6 | 0.059 | –
